This passage reports EC50 and CC50 results from patent US11639350B2, “Heteroaryldihydropyrimidine derivatives and methods of treating hepatitis B infections” (Janssen Pharmaceutica NV, priority 2018, dated 2023).

Where two headings read alike, the source gives them in different places.

One series concerns HBV. Description: HBV inhibitory activity: HBV DNA in the culture medium of HepG2.2.15 cells by q-PCR. Format: cell-based. As to conditions: Hepatitis B virus, HepG2.2.15, 144 h. An outline of the steps:
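HepG2.2.15 cells in 2% FBS medium, 40,000 per well, treated 6 days with compound (medium refreshed once), eight 3-fold dilutions from 10 μM top. HBV DNA extracted from culture medium and quantified by q-PCR; EC50 averaged over repeats. Cytotoxicity run in parallel at 5,000 cells per well, top 100 μM, giving CC50.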

Series [1] in a line: Cytotoxicity determination in HepG2.2.15 cells (CCK-8). The series is classed as cell-based. As to conditions: human, 6 days of compound treatment, CCK-8, highest concentration 100 μM. An outline of the steps: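 HepG2.2.15 cells seeded at 5,000 cells/well in 2% FBS medium, incubated overnight at 37° C., then treated 6 days with compounds (8 points, 3-fold dilutions, top 100 μM), medium refreshed once midway. CCK-8 added for 2.5 h; A450 read against 630 nm reference; CC50 calculated, averaged over repeats.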

Where [2] appears, read: HepG2.2.15 cells, 6 days of compound treatment, HBV DNA in culture medium by q-PCR, highest concentration 10 μM, read-out: EC50.

For orientation: EC50 means the midpoint of the concentration-response curve. In general, CC50 refers to the concentration that lowers cell viability or growth by half. As to `COC(=O)C1=C(C2CCN(S(=O)(=O)CCC(=O)O)CC2)NC(c2nccs2)=NC1c1ccc(F)cc1Cl` (centres unmarked) [Compound 105, 3-((4-(6-(2-Chloro-4-fluorophenyl)-5-(methoxycarbonyl)-2-(thiazol-2-yl)-3,6-dihydropyrimidin-4-yl)piperidin-1-yl)sulfonyl)propanoic Acid], the half-maximal effective concentration (EC50) in the series on HBV (setting [2]) turned out to be 0.15 µM. Further, in series [1], the cytotoxic concentration (CC50) at 6 days was 14.4 µM.
As for `COC(=O)C1=C([C@H]2CCC[C@@H](CO)C2)NC(c2nccs2)=NC1c1ccc(F)cc1Cl` (single isomer, unassigned) [Compound 173A, Methyl 4-(2-chloro-4-fluorophenyl)-6-((cis)-3-(hydroxymethyl)cyclohexyl)-2-(thiazol-2-yl)-1,4-dihydropyrimidine-5-carboxylate], the EC50 in the series with HBV (setting [2]) came out at 0.076 µM. This compound displayed a CC50 at 6 days in series [1] of 18.6 µM.
Consider `COC(=O)C1=C(C23CC(NS(C)(=O)=O)(C2)C3)NC(c2nccs2)=NC1c1ccc(F)cc1Cl` (single isomer, unassigned) [Compound 372Y, Methyl 4-(2-chloro-4-fluorophenyl)-6-(3-(methylsulfonamido)bicyclo[1.1.1]pentan-1-yl)-2-(thiazol-2-yl)-1,4-dihydropyrimidine-5-carboxylate], for which the concentration giving a half-maximal response (EC50) in the series on HBV (setting [2]) came to 0.015 µM. This compound also came in with a CC50 at 6 days in series [1] of 31.8 µM.
The like results for `COC(=O)C1=C(C2CN(S(=O)(=O)C3CCC3)C2)NC(c2nccs2)=NC1c1ccc(F)cc1Cl` (centres unmarked) [Compound 80, Methyl 4-(2-chloro-4-fluorophenyl)-6-(1-(cyclobutylsulfonyl)-azetidin-3-yl)-2-(thiazol-2-yl)-1,4-dihydropyrimidine-5-carboxylate] were, in that order, 0.107 µM and 6.3 µM.
On to `COC(=O)C1=C([C@H]2CC[C@H](NS(C)(=O)=O)CC2)NC(c2ncc(F)cc2F)=NC1c1ccc(F)cc1Cl` (single isomer, unassigned) [Compound 396B, (trans)-Methyl 4-(2-chloro-4-fluorophenyl)-2-(3,5-difluoropyridin-2-yl)-6-(4-(methylsulfonamido)cyclohexyl)-1,4-dihydropyrimidine-5-carboxylate], for which the EC50 in the series with HBV (setting [2]) is 0.02 µM. This compound registered a 50% cytotoxic concentration (CC50) at 6 days in series [1] of 22.5 µM.
In the same order, the values of `COC(=O)C1=C(C2CCN(S(C)(=O)=O)CC2)NC(c2c(F)cc(F)cc2F)=NC1c1ccc(F)cc1Cl` (single isomer, unassigned) [Compound 54A, Methyl 4-(2-chloro-4-fluorophenyl)-6-(1-(methylsulfonyl)piperidin-4-yl)-2-(2,4,6-trifluorophenyl)-1,4-dihydropyrimidine-5-carboxylate] are 0.019 µM and 31.2 µM.
The like results for `COC(=O)C1=C(C2CN(S(C)(=O)=O)C2)NC(c2nccs2)=NC1c1ccc(F)cc1Cl` (single isomer, unassigned) [Compound 84A, 4-(2-Chloro-4-fluoro-phenyl)-6-(1-methanesulfonyl-azetidin-3-yl)-2-thiazol-2-yl-1,4-dihydro-pyrimidine-5-carboxylic Acid Methyl Ester] were, in that order, 0.118 µM and 29 µM.
With `COC(=O)C1=C(C2CCN(S(=O)(=O)[C@H]3C[C@@H](C(=O)O)C3)C2)NC(c2nccs2)=NC1c1ccc(F)cc1Cl` (relative stereo) [Compound 367B, (cis)-3-((3-(6-(2-chloro-4-fluorophenyl)-5-(methoxycarbonyl)-2-(thiazol-2-yl)-3,6-dihydropyrimidin-4-yl)pyrrolidin-1-yl)sulfonyl)cyclobutanecarboxylic Acid], the concentration giving a half-maximal response (EC50) in the series with HBV (setting [2]) is 0.8 µM. The compound further yielded a CC50 at 6 days in series [1] greater than 100 µM.
Turning to `COCCOCCOCCS(=O)(=O)N1CCC(C2=C(C(=O)OC)C(c3ccc(F)cc3Cl)N=C(c3nccs3)N2)CC1` (centres unmarked) [Compound 459, Methyl 4-(2-chloro-4-fluorophenyl)-6-(1-((2-(2-(2-methoxyethoxy)ethoxy)ethyl)sulfonyl)piperidin-4-yl)-2-(thiazol-2-yl)-1,4-dihydropyrimidine-5-carboxylate], the EC50 in the series with HBV (setting [2]) stood at 0.041 µM. This compound showed a CC50 at 6 days in series [1] of 93.5 µM.
The like results for `COC(=O)C1=C([C@H]2CC[C@@H](N(CC(=O)O)S(C)(=O)=O)CC2)NC(c2nccs2)=NC1c1ccc(F)cc1Cl` (relative stereo) [Compound 135, 2-(N-(cis-4-(6-(2-chloro-4-fluorophenyl)-5-(methoxycarbonyl)-2-(thiazol-2-yl)-3,6-dihydropyrimidin-4-yl)cyclohexyl)methylsulfonamido)acetic Acid] were, in that order, 0.346 µM and 62.5 µM.
In the series on HBV, `COC(=O)C1=C(C2CCN(S(=O)(=O)CCOCCOCCO)CC2)NC(c2nccs2)=NC1c1ccc(F)cc1Cl` (centres unmarked) [Compound 468, Methyl 4-(2-chloro-4-fluorophenyl)-6-(1-((2-(2-(2-hydroxyethoxy)ethoxy)ethyl)sulfonyl)piperidin-4-yl)-2-(thiazol-2-yl)-1,4-dihydropyrimidine-5-carboxylate] displayed an EC50 of 0.009 µM. In series [1], this compound displayed a CC50 at 6 days of 42.9 µM.
Regarding `COC(=O)C1=C(C2CCN(S(=O)(=O)c3nccs3)CC2)NC(c2nccs2)=NC1c1ccc(F)cc1Cl` (centres unmarked) [Compound 200A, Methyl 4-(2-chloro-4-fluorophenyl)-2-(thiazol-2-yl)-6-(1-(thiazol-2-ylsulfonyl)piperidin-4-yl)-1,4-dihydropyrimidine-5-carboxylate], the concentration giving a half-maximal response (EC50) in the series with HBV (setting [2]) stood at 0.102 µM. For the same compound, the CC50 at 6 days in series [1] was greater than 100 µM.
Consider `COC(=O)C1=C([C@H]2CC[C@H](N(CCO)S(C)(=O)=O)CC2)NC(c2nccs2)=NC1c1ccc(F)c(F)c1Cl` (single isomer, unassigned) [Compound 315D, (trans)-Methyl 4-(2-chloro-3,4-difluorophenyl)-6-(4-(N-(2-hydroxyethyl)methylsulfonamido)cyclohexyl)-2-(thiazol-2-yl)-1,4-dihydropyrimidine-5-carboxylate], for which the EC50 in the series with HBV (setting [2]) was 0.025 µM. Besides, the half-maximal cytotoxic concentration (CC50) at 6 days in series [1] was found to be 12.6 µM.
In the same order, the values of `COC(=O)C1=C(C23CC(NS(=O)(=O)CC(O)CO)(C2)C3)NC(c2nccs2)=NC1c1ccc(F)cc1Cl` (centres unmarked) [Compound 393B, Methyl 4-(2-chloro-4-fluorophenyl)-6-(3-(2,3-dihydroxypropylsulfonamido)bicyclo[1.1.1]pentan-1-yl)-2-(thiazol-2-yl)-1,4-dihydropyrimidine-5-carboxylate] are 0.1 µM and 85 µM.
The like results for `COC(=O)C1=C(C2CCCO2)NC(c2nccs2)=NC1c1ccc(F)cc1Cl` (single isomer, unassigned) [Compound 70D, Methyl 4-(2-chloro-4-fluorophenyl)-6-(tetrahydrofuran-2-yl)-2-(thiazol-2-yl)-1,4-dihydropyrimidine-5-carboxylate] were, in that order, 0.14 µM and 22.6 µM.
In the same order, the values of `COC(=O)C1=C([C@@H]2CO[C@@H](C(=O)O)C2)NC(c2nccs2)=N[C@H]1c1cccc(F)c1Cl` [Compound 212A] are 1.01 µM and greater than 100 µM.
For the compound `CCOC(=O)C1=C([C@@H]2CCN(S(C)(=O)=O)[C@@H](CF)C2)NC(c2nccs2)=NC1c1ccc(F)cc1Cl` (relative stereo) [Compound 404N, ethyl 4-(2-chloro-4-fluorophenyl)-6-((trans)-2-(fluoromethyl)-1-(methylsulfonyl)piperidin-4-yl)-2-(thiazol-2-yl)-1,4-dihydropyrimidine-5-carboxylate], the half-maximal effective concentration (EC50) in the series with HBV (setting [2]) was 0.155 µM. For the same compound, the half-maximal cytotoxic concentration (CC50) at 6 days in series [1] worked out at 17.7 µM.
The like results for `COC(=O)C1=C([C@H]2CC[C@H](C(=O)OC)CC2)NC(c2nccs2)=NC1c1ccc(F)c(F)c1Cl` (single isomer, unassigned) [Compound 288M, (trans)-Methyl 4-(2-chloro-3,4-difluorophenyl)-6-(4-(methoxycarbonyl)cyclohexyl)-2-(thiazol-2-yl)-1,4-dihydropyrimidine-5-carboxylate] were, in that order, 0.063 µM and 20 µM.
The like results for `CCOC(=O)C1=C([C@@H]2C[C@H](NS(C)(=O)=O)CO2)NC(c2nccs2)=NC1c1cccc(F)c1Cl` (relative stereo) [Compound 261, (cis)-Ethyl 4-(2-chloro-3-fluorophenyl)-6-(4-(methylsulfonamido)-tetrahydrofuran-2-yl)-2-(thiazol-2-yl)-1,4-dihydropyrimidine-5-carboxylate] were, in that order, 0.142 µM and 37.5 µM.
In the same order, the values of `COC(=O)C1=C(C2CCN(S(=O)(=O)c3cnn(CCC(C)(C)O)c3)CC2)NC(c2nccs2)=NC1c1ccc(F)cc1Cl` (centres unmarked) [Compound 458, Methyl 4-(2-chloro-4-fluorophenyl)-6-(1-((1-(3-hydroxy-3-methylbutyl)-1H-pyrazol-4-yl)sulfonyl)piperidin-4-yl)-2-(thiazol-2-yl)-1,4-dihydropyrimidine-5-carboxylate] are less than 0.0046 µM and 15.5 µM.
For `COC(=O)C1=C(C2CCN(C(=O)C3CC3)CC2)NC(c2nccs2)=NC1c1ccc(F)cc1Cl` (centres unmarked) [Compound 102, Methyl 4-(2-chloro-4-fluorophenyl)-6-(1-(cyclopropanecarbonyl)-piperidin-4-yl)-2-(thiazol-2-yl)-1,4-dihydropyrimidine-5-carboxylate], the EC50 in the series on HBV (setting [2]) was 0.13 µM. In series [1], this compound gave a cytotoxic concentration (CC50) at 6 days of 57 µM.
As to `CCOC(=O)C1=C([C@@H]2C[C@H]2CC(=O)O)NC(c2nccs2)=NC1c1ccc(F)cc1Cl` (single isomer, unassigned) [Compound 92, 2-(trans-2-(6-(2-Chloro-4-fluorophenyl)-5-(ethoxycarbonyl)-2-(thiazol-2-yl)-3,6-dihydropyrimidin-4-yl)cyclopropyl)acetic Acid], the EC50 with HBV (setting [2]) was 0.326 µM. The compound further returned a CC50 at 6 days in series [1] of 99 µM.
